In patent US20080038359A1, “Stable Nanoparticle Formulations” (SANOFI-AVENTIS U.S. LLC, priority 2005, published 2008):

Assays:
[1] = Solubility of Compound B in soy oil, estimated visually; format: physicochemical; settings: oil or lipid, thermodynamic from solid; visual estimate by gradual addition of soy oil
Description: The solubility of Compound B in soy oil was initially estimated visually by gradual addition of soy oil to a weighed amount of the drug substance until the oil was almost clear (visually). An estimate of the drug substance in oil was calculated from the total amount of oil added.

[2] = generally known; cited from earlier work

| solubility [1] | Compound | solubility in oils [2] |
| --- | --- | --- |
| < 1 mg/mL | Cn1c2ccc(F)cc2c2c(C(=O)N3CCCC3)cn(-c3ccccc3)c(=O)c21 [Compound B, 6-Fluoro-9-methyl-2-phenyl-4-(pyrrolidin-1-ylcarbonyl)-2,9-dihydro-1H-pyrido[3,4-b]indol-1-one] |  |
|  | CCCCc1oc2ccc(C(=O)OC(C)C)cc2c1C(=O)c1ccc(CCCN(CCCC)CCCC)cc1.O=C(O)/C=C/C(=O)O [Compound C, Isopropyl 2-butyl-3-[4-[3-(dibutylamino)propyl]benzoyl]-1-benzofuran-5-carboxylate fumarate] | low solubility |
